One series concerns rats. Particulars: 14-day, cited from earlier work.
Series [1] relates to SuHx rat model of pulmonary arterial hypertension. In words: SuHx rat model of PAH with 3 weeks normoxia before treatment, Example 2. It is filed as in vivo. The procedure:
A second study was conducted as described in Example 1, except the rats injected with Sugen 5416 and placed in hypoxia for 3 weeks were returned to normoxia for three weeks, and then treated for three weeks. The rats were then implanted with s.c. osmotic pumps delivering vehicle (negative control), 0.05 mg/kg/day tacrolimus (FK506), or 0.15 mg/kg/day, 1.0 mg/kg/day, 3.0 mg/kg/day ascomycin (FK520). Rats that were not treated with Sugen 5416 and remained under normoxia served as control. There were 5 rats in the control group, and 10 rats in each treated group. At the end of the study, the rats were anaesthetized and hemodynamic data was obtained. […] The left lobes of the lungs were harvested from every rat, fixed with 10% formalin, sliced at 5 μm thickness, mounted and stained with Movat staining. […] Of particular significance in SuHx model is the rare plexiform lesions (label 4 in FIG. 3A) that are neointimal hyperplasia blocking the small vessels resulting in increased pressure. With plexiform lesions and endothelial cells overgrowth, obliteration is formed.

Series [2] shares this test system. In words: Sugen 5416 plus chronic hypoxia (SuHx) rat model of PAH, Example 1. It is filed as in vivo. An excerpt: The purpose of this study was to establish pulmonary arterial hypertension (PAH) in rats by induction with Sugen 5416, a vascular endothelial growth factor (VEGF) inhibitor, plus chronic hypoxia (SuHx) in order to evaluate and compare the efficacy of tacrolimus and ascomycin for the treatment of PAH in the SuHx rat model. The assay is designed to measure the pulmonary and systemic arterial blood pressures related to PAH in the anaesthetized SuHx rat induced with a single subcutaneous dose of Sugen 5416, combined with an induction period of chronic hypoxia.
Male Sprague Dawley rats (Charles River Laboratories) weighing between 200 and 250 g at the time of their enrollment in the study were the test subjects for this study. The animals were assigned to groups by the Study Director in order to evenly distribute the ranges of body weights throughout all treatment groups. Animals in the test groups (n=10 in each group) received one subcutaneous injection of 20 mg/kg of SU5416 on Day 0 and were returned to their respective cages. These rats were placed in cages in which the controlled airflow (ventilated cage system) was adjusted to deliver a FiO2 equivalent to 0.10 (10%) using a mixture of nitrogen and ambient air, for a period of 3 weeks. Animals in the control group (n=5) remained in cages exposed to ambient oxygen levels.
On day 21, animals in the test groups were implanted with osmotic pumps filled with the vehicle alone (negative control), or with the appropriate concentration of tacrolimus (FK506) or ascomycin (FK520) to deliver 0.05 mg/kg/day of tacrolimus, 0.05 mg/kg/day of ascomycin, or 0.15 mg/kg/day of ascomycin for a period of three weeks. At the end of the study, the rats were anaesthetized and hemodynamic data was obtained. […] Cardiac output was lower after administration of Sugen5416 and hyposia, and increased with ascomycin treatment.

The test system of series [3] is popliteal lymph node hyperplasia. Particulars: popliteal lymph node hyperplasia assay; lower potency than tacrolimus; cited from earlier work.
Series [4] deals with patients with pulmonary hypertension (WHO Group I PAH). In words: Clinical study in patients with pulmonary arterial hypertension, Example 3. Format: in vivo, human. An excerpt: Patients are invited to participate in this study because they have pulmonary hypertension (PH) and are currently treated with one or multiple drugs for PH such as PDE-5 inhibitors (sildenafil, tadalafil), prostacyclins (Flolan, Remodulin, Iloprost) and/or the endothelin antagonist Ambrisentan. This study is open to male or female subjects, 18-70 years of age, with pulmonary hypertension. The Inclusion and Exclusion criteria used are below:
• 1. Age ≥18 and <70 years • 2. Diagnosis of WHO Group I Pulmonary Arterial Hypertension (PAH) (Idiopathic (I)PAH, Heritable PAH (including Hereditary Hemorrhagic Telangiectasia), Associated (A)PAH (including collagen vascular disorders, drugs+toxins exposure, congenital heart disease, and portopulmonary disease). • 3. Previous Right Heart Catheterization (RHC) that documented: • a. Mean PAP≥25 mmHg. • b. Pulmonary capillary wedge pressure<15 mmHg. • c. Pulmonary Vascular Resistance≥3.0 Wood units or 240 dynes/sec/cm5 • 5. All NYHA/WHO functional classes. • 6. Willingness of female subjects to use birth control, or be post-menopausal, or status post hysterectomy.
• 1. WHO Group II-V Pulmonary Hypertension. • 2. Current or prior experimental PAH treatments within the last 6 months (including but not limited to tyrosine kinase inhibitors, rho-kinase inhibitors, or cGMP modulators). • 3. […]

The subject of series [5] is BMP response element (BRE) from the Id1 promoter fused to luciferase (BRE-luc) in C2C12 mouse myoblastoma reporter cell line. The series is described as follows: BRE-luc BMP signaling reporter assay in C2C12 cells. It is filed as cell-based. The protocol: The activation of the BMP pathway was measured by luminescence. […] Thus, ascomycin activates BMPR2 signaling, and can be used for the prevention or treatment of diseases associated with decreased BMPR2 signaling, such as pulmonary arterial hypertension (PAH).
(In general: In a reporter assay the amount or activity of a reporter protein is the signal.)

The conditions of series [6]: assay/target not stated; cited from earlier work.
The mark [7] stands for this setting: all three doses (0.15 [0.3 in b20], 1.0, 3.0 mg/kg/day) s.c. osmotic pump, three weeks.
[8] abbreviates: 0.15 mg/kg/day by osmotic pump for three weeks, vs vehicle-treated SuHx rats.
[9] abbreviates: 0.05 mg/kg/day s.c. osmotic pump, three weeks.

Read-outs that look alike come from different tables or passages of the source.

By IC50 is commonly meant the concentration that inhibits the measured activity by half. For `CC[C@@H]1/C=C(\C)C[C@H](C)C[C@H](OC)[C@H]2O[C@@](O)(C(=O)C(=O)N3CCCC[C@H]3C(=O)O[C@H](/C(C)=C/[C@@H]3CC[C@@H](O)[C@H](OC)C3)[C@H](C)[C@@H](O)CC1=O)[C@H](C)C[C@@H]2OC` [ascomycin, (3S,4R,5S,8R,9E,12S,14S,15R,16S,18R, 19R,26aS)-8-ethyl-5,19-dihydroxy-3-{(1E)-1-[(1R,3R,4R)-4-hydroxy-3-methoxycyclohexyl]prop-1-en-2-yl}-14,16-dimethoxy-4,10,12,18-tetramethyl-5.6,8,11,12,13,14,15,16,17,18,19,24,25,26,26a-hexadecahydro-3H-15.19-epoxypyrido[2,1-c][1,4]oxazacyclotricosine-1,7,20,21(4H,23H)-tetrone], the nephrotoxicity entry in the series on rats (continuous i.p. infusion at 10 mg/kg/day, rats on a normal diet) was “not induced”; with rats (continuous i.v. infusion up to 6 mg/kg/day, rats on a low salt diet), “not induced”; in the series with rats (daily oral administration up to 50 mg/kg/day, rats on a normal diet), “not induced”. The “lung histopathology (Movat staining micrographs, FIG. 3B)” value in series [1] (1 mg/kg/day, left lung lobes, negative control showed all four grades of disease progression) is “mostly medial hypertrophy (label 1) and non-muscular vessels”. Also, in series [1] (setting [7]), the “right ventricular systolic pressure” value was “decreases”. For the same compound, in series [1] (setting [7]), the “systolic pulmonary arterial pressure” value is recorded as “decreases”. In addition, in series [2] (setting [8]), the “RVSP (FIG. 1B)” value is recorded as “reversed the elevation”. Besides, in series [2] (setting [8]), the “pulmonary arterial pressure (FIG. 1A)” value is recorded as “reversed the elevation”. The Cardiac output entry in series [2] (ascomycin treatment after Sugen5416 and hypoxia, dose not specified) was “increased”. In series [3], the “immunosuppressive potency compared with tacrolimus (fold lower)” value is on record as 3 fold. The “incidences of hypertension or cardiovascular events” value in series [4] is given as “no incidences”. Further, in series [4] (all tested doses), the tolerability entry is recorded as “well tolerated”. Moreover, the “IDI activation (luminescence relative to the EC-20 dose of BMP4)” value in series [5] (with exogenous BMP4) was 238%; in series [5] (without exogenous BMP4), 104%. Further, the IC50 in series [6] was 0.55 nM.

Turning to `C=CC[C@@H]1/C=C(\C)C[C@H](C)C[C@H](OC)[C@H]2O[C@@](O)(C(=O)C(=O)N3CCCC[C@H]3C(=O)O[C@H](/C(C)=C/[C@@H]3CC[C@@H](O)[C@H](OC)C3)[C@H](C)[C@@H](O)CC1=O)[C@H](C)C[C@@H]2OC` [tacrolimus, reference compound], in series [1] (setting [9]), the right ventricular hypertrophy entry is reported as “reduces the elevation” and the “right ventricular systolic pressure” value is given as “reduces the elevation”.
